Experimental findings from the supplement of paper PMC11208160 are described below.

The data set in a line: recombinant barcode read abundance after kanamycin selection (control-corrected) (log10(CPM+1)); higher = more efficient recombination; sequences stand for … in AGTGCAGAGAAAATCGGCCAGTTTTCTCTGCCTGCAGTCCGCATGCCGT…AGATTTATGCAGCGGACTGCCTTTCTCCCAAAGTGATAAACCGGACAGTATCATGGACCGGTTTTCCCGGTAATCCGTATTTGCAAGGTTGGTTTCACT; site = the 11-nt target. In outline: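 Oligos holding a promoter, target, barcode and the J23119-driven first 104 bases of the bridge RNA were Gibson-cloned into a vector that supplied the other 73 bp plus a T7-inducible recombinase. This library was co-electroporated with a donor plasmid into E. coli. Two replicates went on chloramphenicol/ampicillin LB agar (control) and two on chloramphenicol/ampicillin/kanamycin with 0.1 mM IPTG. Recombination efficiency is read from averaged, control-corrected barcode counts per million at recombinant junctions, reported as log10(CPM+1).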
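Also: IS621 recombinase and bridge RNA in Escherichia coli cells.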

Turning to “GGGGTTCCTTGGGTTCTAACCTGTTGCGT (site GGGGTTCCTAG)”, the “recombinant barcode read abundance (log10)” value came to 1.35.

In the case of “GGGGTTCCTTGGGTTCTAACCTGTTGCGT (site GGGGTTCCTAT)”, the “recombinant barcode read abundance (log10)” value turned out to be 1.85.

“GGGGTTCCTTGGGTTCTAACCTGTTGCTT (site GGGGTTCCTAA)”: the “recombinant barcode read abundance (log10)” value was determined as 1.52.

Turning to “GGGGTTCCTTGGGTTCTAACCTGTTGCTT (site GGGGTTCCTAC)”, the “recombinant barcode read abundance (log10)” value was found to be 1.89.

Consider “GGGGTTCCTTGGGTTCTAACCTGTTGCTT (site GGGGTTCCTAG)”, for which the “recombinant barcode read abundance (log10)” value came to 1.36.

Regarding “GGGGTTCCTTGGGTTCTAACCTGTTGCTT (site GGGGTTCCTAT)”, the “recombinant barcode read abundance (log10)” value was 1.17.

Regarding “GGGTAATCTTGGGTTCTAACCTGTTGCCT (site GGGTAAACTAG)”, the “recombinant barcode read abundance (log10)” value stood at 0.27.

As for “GGGTAATCTTGGGTTCTAACCTGTTGCCT (site GGGTAATCTAG)”, the “recombinant barcode read abundance (log10)” value was 0.725.

As for “GGGTCCACTTGGGTTCTAACCTGTTGCCT (site GGGTCCACTAA)”, the “recombinant barcode read abundance (log10)” value is 0.481.

With “GGGTCCACTTGGGTTCTAACCTGTTGCCT (site GGGTCCACTAC)”, the “recombinant barcode read abundance (log10)” value was determined as 0.287.

Regarding “GGGTCCACTTGGGTTCTAACCTGTTGCCT (site GGGTCCACTAG)”, the “recombinant barcode read abundance (log10)” value was determined as 2.5.

As to “GGGTCCACTTGGGTTCTAACCTGTTGCCT (site GGGTCCACTAT)”, the “recombinant barcode read abundance (log10)” value was found to be 0.358.

With “GGGTCCACTTGGGTTCTAACCTGTTGCTT (site GGGTCCACTAA)”, the “recombinant barcode read abundance (log10)” value worked out at 1.51.

In the case of “GGGTCCACTTGGGTTCTAACCTGTTGCTT (site GGGTCCACTAC)”, the “recombinant barcode read abundance (log10)” value came to 0.139.

Regarding “GGGTCCACTTGGGTTCTAACCTGTTGCTT (site GGGTCCACTAG)”, the “recombinant barcode read abundance (log10)” value is 1.11.

Take “GGGTCCACTTGGGTTCTAACCTGTTGCTT (site GGGTCCACTAT)”: the “recombinant barcode read abundance (log10)” value turned out to be 0.714.

For “GGGTTCCCTTGGGTTCTAACCTGTTGCCT (site GGGTTCCCTAG)”, the “recombinant barcode read abundance (log10)” value amounted to 2.11.

For “GGGTTCCCTTGGGTTCTAACCTGTTGCCT (site GGGTTCGCTAG)”, the “recombinant barcode read abundance (log10)” value is 0.031.

As to “GGGTTCGCTTGGGTTCTAACCTGTTGCCT (site GGGTTCCCTAG)”, the “recombinant barcode read abundance (log10)” value was 0.362.

Consider “GGGTTCGCTTGGGTTCTAACCTGTTGCCT (site GGGTTCGCTAG)”, for which the “recombinant barcode read abundance (log10)” value worked out at 1.93.

Regarding “GGTAAGTCTTGGGTTCTAACCTGTTGCCT (site GGTAAATCTAG)”, the “recombinant barcode read abundance (log10)” value was 0.3.

On to “GGTAAGTCTTGGGTTCTAACCTGTTGCCT (site GGTAAGTCTAG)”, for which the “recombinant barcode read abundance (log10)” value was 0.298.

Regarding “GGTACGACTTGGGTTCTAACCTGTTGCAG (site GGTACGACTCT)”, the “recombinant barcode read abundance (log10)” value was 1.04.

With “GGTACGACTTGGGTTCTAACCTGTTGCAG (site GGTACGCCTAT)”, the “recombinant barcode read abundance (log10)” value is 0.336.

Take “GGTACGCCTTGGGTTCTAACCTGTTGCGT (site GGTACGCCTAC)”: the “recombinant barcode read abundance (log10)” value is 0.248.

Consider “GGTACGCCTTGGGTTCTAACCTGTTGCGT (site GGTACTCCTAC)”, for which the “recombinant barcode read abundance (log10)” value was 0.213.

“GGTACTACTTGGGTTCTAACCTGTTGCCA (site ACTACTACTTG)”: the “recombinant barcode read abundance (log10)” value was 0.0797.

As for “GGTACTACTTGGGTTCTAACCTGTTGCCA (site GGTACTACTTG)”, the “recombinant barcode read abundance (log10)” value stood at 0.152.

Consider “GGTACTTCTTGGGTTCTAACCTGTTGCTT (site CACCACCCTCC)”, for which the “recombinant barcode read abundance (log10)” value amounted to 0.157.

For the sequence “GGTACTTCTTGGGTTCTAACCTGTTGCTT (site GGTACTTCTAA)”, the “recombinant barcode read abundance (log10)” value amounted to 0.152.

Consider “GGTAGGCCTTGGGTTCTAACCTGTTGCTT (site GGTAGATCTAA)”, for which the “recombinant barcode read abundance (log10)” value is 0.0963.

For the sequence “GGTAGGCCTTGGGTTCTAACCTGTTGCTT (site GGTAGGCCTAA)”, the “recombinant barcode read abundance (log10)” value turned out to be 0.0588.

As to “GGTATAGCTTGGGTTCTAACCTGTTGCCT (site GGTAAAGCTAG)”, the “recombinant barcode read abundance (log10)” value came out at 0.14.

Turning to “GGTATAGCTTGGGTTCTAACCTGTTGCCT (site GGTATAGCTAG)”, the “recombinant barcode read abundance (log10)” value came to 0.827.

Consider “GGTCACCCTTGGGTTCTAACCTGTTGCGG (site GGTAACCCTCC)”, for which the “recombinant barcode read abundance (log10)” value came out at 0.0652.

For “GGTCACCCTTGGGTTCTAACCTGTTGCGG (site GGTCACCCTCC)”, the “recombinant barcode read abundance (log10)” value is 1.75.

Turning to “GGTCACCCTTGGGTTCTAACCTGTTGCGG (site GGTGACCCTCC)”, the “recombinant barcode read abundance (log10)” value is 0.0199.

In the case of “GGTCACCCTTGGGTTCTAACCTGTTGCGG (site GGTTACCCTCC)”, the “recombinant barcode read abundance (log10)” value was 0.16.

On to “GGTCATCCTTGGGTTCTAACCTGTTGCCT (site GGTCATACTAG)”, for which the “recombinant barcode read abundance (log10)” value was determined as 0.127.

Turning to “GGTCATCCTTGGGTTCTAACCTGTTGCCT (site GGTCATCCTAG)”, the “recombinant barcode read abundance (log10)” value came to 1.17.

“GGTCATCCTTGGGTTCTAACCTGTTGCCT (site GGTCATGCTAG)”: the “recombinant barcode read abundance (log10)” value is 0.0238.

Turning to “GGTCATCCTTGGGTTCTAACCTGTTGCCT (site GGTCATTCTAG)”, the “recombinant barcode read abundance (log10)” value stood at 0.0693.

For “GGTCCAACTTGGGTTCTAACCTGTTGCCT (site GGTCAAACTAG)”, the “recombinant barcode read abundance (log10)” value was 0.1.

For “GGTCCAACTTGGGTTCTAACCTGTTGCCT (site GGTCCAACTAG)”, the “recombinant barcode read abundance (log10)” value came to 0.32.

In the case of “GGTCCAACTTGGGTTCTAACCTGTTGCCT (site GGTCGAACTAG)”, the “recombinant barcode read abundance (log10)” value is 0.0176.

On to “GGTCCAACTTGGGTTCTAACCTGTTGCCT (site GGTCTAACTAG)”, for which the “recombinant barcode read abundance (log10)” value came to 0.159.

In the case of “GGTCCATCTTGGGTTCTAACCTGTTGCCT (site GATCCATCTAG)”, the “recombinant barcode read abundance (log10)” value turned out to be 0.

With “GGTCCATCTTGGGTTCTAACCTGTTGCCT (site GCTCCATCTAG)”, the “recombinant barcode read abundance (log10)” value amounted to 0.0427.

Take “GGTCCATCTTGGGTTCTAACCTGTTGCCT (site GGTCCATCTAG)”: the “recombinant barcode read abundance (log10)” value came to 0.161.

In the case of “GGTCCATCTTGGGTTCTAACCTGTTGCCT (site GTTCCATCTAG)”, the “recombinant barcode read abundance (log10)” value was 0.165.

Consider “GGTCCGGCTTGGGTTCTAACCTGTTGCGG (site GATCCGTCTCC)”, for which the “recombinant barcode read abundance (log10)” value was 0.0623.

Take “GGTCCGGCTTGGGTTCTAACCTGTTGCGG (site GGTCCGGCTCC)”: the “recombinant barcode read abundance (log10)” value is 1.61.

On to “GGTCCTGCTTGGGTTCTAACCTGTTGCCT (site AGTCCTGCTAG)”, for which the “recombinant barcode read abundance (log10)” value was 0.366.

Consider “GGTCCTGCTTGGGTTCTAACCTGTTGCCT (site CGTCCTGCTAG)”, for which the “recombinant barcode read abundance (log10)” value is 0.0632.

In the case of “GGTCCTGCTTGGGTTCTAACCTGTTGCCT (site GGTCCTGCTAG)”, the “recombinant barcode read abundance (log10)” value worked out at 0.976.

Take “GGTCCTGCTTGGGTTCTAACCTGTTGCCT (site TGTCCTGCTAG)”: the “recombinant barcode read abundance (log10)” value is 0.174.

As to “GGTCGACCTTGGGTTCTAACCTGTTGCCT (site AGTCGACCTAG)”, the “recombinant barcode read abundance (log10)” value was determined as 0.0754.

Turning to “GGTCGACCTTGGGTTCTAACCTGTTGCCT (site CGTCGACCTAG)”, the “recombinant barcode read abundance (log10)” value turned out to be 0.0694.

Consider “GGTCGACCTTGGGTTCTAACCTGTTGCCT (site GGTCGACCTAG)”, for which the “recombinant barcode read abundance (log10)” value was found to be 0.898.

“GGTCGACCTTGGGTTCTAACCTGTTGCCT (site TGTCGACCTAG)”: the “recombinant barcode read abundance (log10)” value was 0.175.

Turning to “GGTCGCCCTTGGGTTCTAACCTGTTGCGT (site GGTCGCCCTAC)”, the “recombinant barcode read abundance (log10)” value amounted to 1.43.

Take “GGTCGCCCTTGGGTTCTAACCTGTTGCGT (site TCGTAGACTTA)”: the “recombinant barcode read abundance (log10)” value is 0.0116.

With “GGTCGGGCTTGGGTTCTAACCTGTTGCCT (site GGTCGAGCTAG)”, the “recombinant barcode read abundance (log10)” value amounted to 0.132.

As to “GGTCGGGCTTGGGTTCTAACCTGTTGCCT (site GGTCGCGCTAG)”, the “recombinant barcode read abundance (log10)” value turned out to be 0.315.

In the case of “GGTCGGGCTTGGGTTCTAACCTGTTGCCT (site GGTCGGGCTAG)”, the “recombinant barcode read abundance (log10)” value was 0.401.

On to “GGTCGGGCTTGGGTTCTAACCTGTTGCCT (site GGTCGTGCTAG)”, for which the “recombinant barcode read abundance (log10)” value is 0.0723.

Consider “GGTGGGTCTTGGGTTCTAACCTGTTGCGT (site GGTGGGTCTAA)”, for which the “recombinant barcode read abundance (log10)” value was determined as 0.97.

Consider “GGTGGGTCTTGGGTTCTAACCTGTTGCGT (site GGTGGGTCTAC)”, for which the “recombinant barcode read abundance (log10)” value is 3.03.

As for “GGTGGGTCTTGGGTTCTAACCTGTTGCGT (site GGTGGGTCTAG)”, the “recombinant barcode read abundance (log10)” value is 1.1.

In the case of “GGTGGGTCTTGGGTTCTAACCTGTTGCGT (site GGTGGGTCTAT)”, the “recombinant barcode read abundance (log10)” value is 1.93.

As for “GGTTACACTTGGGTTCTAACCTGTTGCCT (site GGATACACTAG)”, the “recombinant barcode read abundance (log10)” value was 0.0395.

Take “GGTTACACTTGGGTTCTAACCTGTTGCCT (site GGTTACACTAG)”: the “recombinant barcode read abundance (log10)” value is 1.26.

Consider “GGTTGTTCTTGGGTTCTAACCTGTTGCCT (site GGTTGTTCTAG)”, for which the “recombinant barcode read abundance (log10)” value turned out to be 0.19.

Consider “GGTTGTTCTTGGGTTCTAACCTGTTGCCT (site TGTTGTTCTAG)”, for which the “recombinant barcode read abundance (log10)” value stood at 0.0976.

In the case of “GTAAACACTTGGGTTCTAACCTGTTGCAG (site GTAAACACTCT)”, the “recombinant barcode read abundance (log10)” value is 0.514.

Regarding “GTAAACACTTGGGTTCTAACCTGTTGCAG (site GTAGACACTCG)”, the “recombinant barcode read abundance (log10)” value came out at 0.113.

For “GTAACCTCTTGGGTTCTAACCTGTTGCTC (site GTAACCTCTGA)”, the “recombinant barcode read abundance (log10)” value was 2.05.
